In patent US20240124456A1, “AZA-ERGOLINE DERIVATIVE AND PREPARATION METHOD THEREFOR AND APPLICATION THEREOF” (SHANGHAITECH UNIVERSITY, priority 2021, published 2024):

Assays:
[1] = molecular target: T1, dopamine D2 receptors (Homo sapiens (Human), UniProt P14416); test: β-arrestin2 recruitment BRET, dopamine D2 receptor functional activity; format: cell-based; conditions: for EC50: HEK-293T, I-1 to 19 n=3, I-20 to 27 single determination, read-out: β-arrestin2 BRET EC50; for Emax: relative to the endogenous ligand dopamine, read-out: β-arrestin2 BRET Emax % ± SEM
T1 sequence (P14416 whole entry): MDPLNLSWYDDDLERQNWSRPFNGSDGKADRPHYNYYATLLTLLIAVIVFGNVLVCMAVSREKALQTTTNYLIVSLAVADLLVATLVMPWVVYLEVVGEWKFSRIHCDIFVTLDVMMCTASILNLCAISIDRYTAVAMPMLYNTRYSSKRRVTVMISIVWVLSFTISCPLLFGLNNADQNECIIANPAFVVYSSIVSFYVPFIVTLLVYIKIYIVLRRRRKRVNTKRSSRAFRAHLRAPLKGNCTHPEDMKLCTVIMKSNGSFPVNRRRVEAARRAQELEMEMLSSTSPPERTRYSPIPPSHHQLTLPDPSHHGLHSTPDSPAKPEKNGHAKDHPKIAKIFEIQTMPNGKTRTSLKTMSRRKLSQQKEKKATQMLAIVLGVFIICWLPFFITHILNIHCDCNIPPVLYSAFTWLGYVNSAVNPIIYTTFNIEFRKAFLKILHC

[2] = molecular target: T1, dopamine D2 receptors; test: G protein Gαi1-γ9 dissociation BRET, dopamine D2 receptor functional activity; format: cell-based; conditions: for EC50: HEK-293T, I-1 to 19 n=3, I-20 to 27 single determination, read-out: Gai1 BRET EC50; for Emax: relative to the endogenous ligand dopamine, read-out: Gai1 BRET Emax % ± SEM
[3] = molecular target: T1, dopamine D2 receptors; test: Radioligand competition binding, affinity for dopamine D2 receptors ([3H]-Methylspiperone); conditions: [3H]-Methylspiperone (0.3-0.5 nM), HEK-293T membranes; for Ki: I-1 to 19 n=3, I-20 to 27 single determination; for Affinity pKi ± SEM: n=3

Row | SMILES | EC50 [1] | Emax [1] | EC50 [2] | Emax [2] | Ki [3] | Affinity pKi ± SEM [3]
1 | CN(C)C(=O)N[C@H]1CC[C@H](CCN2CCN3c4cccc5[nH]cc(c45)C[C@@H]3C2)CC1 [(+)-I-10] | 5.25 nM | 90% | 9.55 nM | 86% | 1140 nM | (5.95 ± 0.17)
2 | CN(C)C(=O)N[C@H]1CC[C@H](CCN2CCN3c4cccc5[nH]cc(c45)C[C@H]3C2)CC1 [(−)-I-10] | 2.75 nM | 89% | 1.38 nM | 78% | 22.4 nM | (7.65 ± 0.08)
3 | O=c1ccc2ccc(OCCCCN3CCN4c5cccc6[nH]cc(c56)CC4C3)cc2[nH]1 (racemic) [Compound I-2, 7-(4(4,6,6a,7,9,10-hexahydro-8H-pyrazino[1,2-a]pyrrolo[4,3,2-de]quinolin-8-yl)butoxy)quinolin-2(1H)-one] | 49 nM | 103% | 14.8 nM | 101% | 9.03 nM | –
4 | O=C1CCc2ccc(OCCCCN3CCN4c5cccc6[nH]cc(c56)CC4C3)cc2N1 (centres unmarked) [Compound I-1, 7-(4(4,6,6a,7,9,10-hexahydro-8H-pyrazino[1,2-a]pyrrolo[4,3,2-de]quinolin-8-yl)butoxy)-3,4-dihydroquinolin-2(1H)-one] | 56.2 nM | 100% | 16.2 nM | 100% | 33.6 nM | (7.47 ± 0.16)
